Like-named read-outs stand apart in the source and are kept apart here.

The results in this text go back to US20240025919A1, “AZA-TETRACYCLIC OXAZEPINE COMPOUNDS AND USES THEREOF” (Genentech, Inc., priority 2022, published 2024).

For one assay, the target named is KRAS G12D (Homo sapiens (Human), UniProt P01116, G12D). The assay is described as follows: KRAS G12D LoEnz Biochemical Assay, BODIPY-GDP Exchange TR-FRET (SOS1-mediated nucleotide exchange). The following applies: read-out: KRas (G12D) GDP HTRF IC50. (In general: In TR-FRET formats the signal depends on donor and acceptor labels being close together.)
Chain of KRAS G12D (P01116-2 other isoform, or with tags, fused parts or gaps G12D): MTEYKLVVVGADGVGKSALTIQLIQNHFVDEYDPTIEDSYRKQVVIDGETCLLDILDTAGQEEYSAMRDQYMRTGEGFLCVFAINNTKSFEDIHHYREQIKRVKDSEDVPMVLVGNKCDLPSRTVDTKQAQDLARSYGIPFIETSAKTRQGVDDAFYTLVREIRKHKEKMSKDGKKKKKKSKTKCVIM
For a further assay, the target named is KRAS WT (Homo sapiens (Human), UniProt P01116). The assay is described as follows: KRAS WT Biochemical Assay, BODIPY-GDP Exchange TR-FRET (Example 501; 3 nM KRAS WT, 3 nM SOS1, 60-minute incubation). A digest of the protocol:
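SOS1-mediated exchange assay: 3 nM biotin-KRAS WT with terbium-streptavidin, started with 3 nM SOS1 and 300 nM BODIPY-GDP, HEPES pH 7.5 with MgCl2. TR-FRET (520/490 nm) read after 60 min; normalized to DMSO and full-inhibition control, IC50 from 4-parameter Hill fit.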

Setting [1] is: read-out: KRas(wt) GDP HTRF IC50.

Chain of KRAS WT (P01116-2 other isoform, or with tags, fused parts or gaps): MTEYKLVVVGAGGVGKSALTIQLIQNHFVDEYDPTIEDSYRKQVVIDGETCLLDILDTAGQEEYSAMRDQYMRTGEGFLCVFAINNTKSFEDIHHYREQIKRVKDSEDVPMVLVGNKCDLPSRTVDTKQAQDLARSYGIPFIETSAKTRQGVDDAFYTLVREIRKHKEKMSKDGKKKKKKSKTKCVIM

For orientation: IC50 means the concentration needed to halve the response being measured. For `Cc1nc(N)cc(-c2nc3c4c(nc(OC[C@]56CCCN5CC(F)(F)C6)nc4c2F)N2C[C@H]4CC[C@H](N4)[C@H]2[C@H](C)O3)c1C(F)(F)F` [Compound 217, 4-((5S,5aS,6S,9R)-12-(((R)-2,2-difluorotetrahydro-1H-pyrrolizin-7a(5H)-yl)methoxy)-1-fluoro-5-methyl-5a,6,7,8,9,10-hexahydro-5H-4-oxa-3,10a,11,13,14-pentaaza-6,9-methanonaphtho[1,8-ab]heptalen-2-yl)-6-methyl-5-(trifluoromethyl)pyridin-2-amine], the IC50 on KRAS G12D came out at 3.39 nM; at KRAS WT (read-out: KRas HTRF IC50), 242 nM.
For `Cc1nc(N)c(F)c(-c2nc3c4c(nc(OC[C@@]56CCCN5CC5(CC5(F)F)C6)nc4c2F)N2C[C@H]4CC[C@H](N4)[C@H]2[C@H](C(F)(F)F)O3)c1C(F)(F)F` (stereo partly drawn) [Compound 257, 4-((5R,5aS,6S,9R)-12-(((7a'S)-2,2-Difluorodihydro-1′H,3′H-spiro[cyclopropane-1,2′-pyrrolizin]-7a′(5′H)-yl)methoxy)-1-fluoro-5-(trifluoromethyl)-5a,6,7,8,9,10-hexahydro-5H-4-oxa-3,10a,11,13,14-pentaaza[6,9]methanonaphtho[1,8-ab]heptalen-2-yl)-3-fluoro-6-methyl-5-(trifluoromethyl)pyridin-2-amine] the same measures were 0.89 nM and 8.41 nM.
For `COCC1(F)CCN(CC2(COc3nc4c5c(nc(-c6cc(N)nc(C)c6C(F)(F)F)c(F)c5n3)O[C@@H](C)[C@@H]3[C@@H]5CC[C@H](CN43)N5)CC2)C1` (stereo partly drawn) [Compound 270, 4-((5S,5aS,6S,9R)-1-fluoro-12-((1-((3-fluoro-3-(methoxymethyl)pyrrolidin-1-yl)methyl)cyclopropyl)methoxy)-5-methyl-5a,6,7,8,9,10-hexahydro-5H-4-oxa-3,10a,11,13,14-pentaaza-6,9-methanonaphtho[1,8-ab]heptalen-2-yl)-6-methyl-5-(trifluoromethyl)pyridin-2-amine] the same measures were 0.26 nM and 10.7 nM.
Turning to `Cc1nc(N)cc(-c2nc3c4c(nc(OCC56CCN5CC(F)(F)C6)nc4c2F)N2C[C@H]4CC[C@H](N4)[C@H]2[C@H](C)O3)c1C(F)(F)F` (stereo partly drawn) [Compound 214, 4-((5S,5aS,6S,9R)-12-((3,3-Difluoro-1-azabicyclo[3.2.0]heptan-5-yl)methoxy)-1-fluoro-5-methyl-5°,6,7,8,9,10-hexahydro-5H-4-oxa-3,10°,11,13,14-pentaaza-6,9-methanonaptho[1,8-ab]heptalen-2-yl)-6-methyl-5-(trifluoromethyl)pyridin-2-amine], the figures for the IC50 on KRAS G12D and at KRAS WT (read-out: KRas HTRF IC50) were 0.42 nM and 55.7 nM, respectively.
With `Cc1cc(N)c(F)c(-c2nc3c4c(nc(OCC56CCN5CC(F)(F)C6)nc4c2F)N2C[C@H]4CC[C@H](N4)[C@H]2[C@H](C)O3)c1C(F)(F)F` (mixture of isomers) [Compound 33, 3-((5S,5aS,6S,9R)-12-((3,3-Difluoro-1-azabicyclo[3.2.0]heptan-5-yl)methoxy)-1-fluoro-5-methyl-5a,6,7,8,9,10-hexahydro-5H-4-oxa-3,10a,11,13,14-pentaaza-6,9-methanonaphtho[1,8-ab]heptalen-2-yl)-2-fluoro-5-methyl-4-(trifluoromethyl)aniline], the figures for the IC50 on KRAS G12D and at KRAS WT (setting [1]) were 0.23 nM and 7.53 nM, respectively.
As to `C#Cc1cccc2cc(O)cc(-c3nc4c5c(nc(OC[C@]67CCN6CC(F)(F)C7)nc5c3F)N3C[C@H]5CC[C@H](N5)[C@H]3[C@H](C)O4)c12` (single isomer, unassigned) [Compound 19], the IC50 on KRAS G12D came out at 0.08 nM; on KRAS WT (setting [1]) it was 1.83 nM.
For `Cc1cc(N)nc(-c2nc3c4c(nc(OC[C@@]56CCCN5CC5(CC5(F)F)C6)nc4c2F)N2C[C@H]4CC[C@H](N4)[C@H]2[C@H](C)O3)c1C(F)(F)F` (stereo partly drawn) [Compound 47, 6-((5S,5aS,6S,9R)-12-(((7a′S)-2,2-difluorodihydro-1′H,3′H-spiro[cyclopropane-1,2′-pyrrolizin]-7a′(5′H)-yl)methoxy)-1-fluoro-5-methyl-5a,6,7,8,9,10-hexahydro-5H-4-oxa-3,10a,11,13,14-pentaaza[6,9]methanonaphtho[1,8-ab]heptalen-2-yl)-4-methyl-5-(trifluoromethyl)pyridin-2-amine], the figures for the IC50 at KRAS G12D and at KRAS WT (setting [1]) were 0.443 nM and 4.43 nM, respectively.
Take `C[C@@H]1Oc2nc(-c3c(C(F)(F)F)ccc(N)c3F)c(F)c3nc(OC[C@@]45CCCN4C[C@H](F)C5)nc(c23)N2C[C@H]3CC[C@H](N3)[C@@H]12` [Compound 35, 2-fluoro-3-((5S,5aS,6S,9R)-1-fluoro-12-(((2R,7aS)-2-fluorotetrahydro-1H-pyrrolizin-7a(5H)-yl)methoxy)-5-methyl-5a,6,7,8,9,10-hexahydro-5H-4-oxa-3,10a,11,13,14-pentaaza-6,9-methanonaphtho[1,8-ab]heptalen-2-yl)-4-(trifluoromethyl)aniline]: the IC50 came to 0.57 nM on KRAS G12D and 15.8 nM at KRAS WT (setting [1]).
As to `Cc1c(F)c(N)cc(-c2nc3c4c(nc(OCC56CCN5C[C@H](F)C6)nc4c2F)N2C[C@H]4CC[C@H](N4)[C@H]2[C@H](C)O3)c1C(F)(F)F` (stereo partly drawn) [Compound 29, 2-fluoro-5-((5S,5aS,6S,9R)-1-fluoro-12-(((3R)-3-fluoro-1-azabicyclo[3.2.0]heptan-5-yl)methoxy)-5-methyl-5a,6,7,8,9,10-hexahydro-5H-4-oxa-3,10a,11,13,14-pentaaza-6,9-methanonaphtho[1,8-ab]heptalen-2-yl)-3-methyl-4-(trifluoromethyl)aniline], the values for the IC50 at KRAS G12D and at KRAS WT (setting [1]) were 0.086 nM and 2.93 nM, respectively.
As for `CO[C@@H]1CCN(CC2(COc3nc4c5c(nc(-c6cc(N)nc(C)c6C(F)(F)F)c(F)c5n3)O[C@@H](C)[C@@H]3[C@@H]5CC[C@H](CN43)N5)CC2)C[C@@H]1F` [Compound 275, 4-((5S,5aS,6S,9R)-1-fluoro-12-((1-(((3S,4R)-3-fluoro-4-methoxypiperidin-1-yl)methyl)cyclopropyl)methoxy)-5-methyl-5a,6,7,8,9,10-hexahydro-5H-4-oxa-3,10a,11,13,14-pentaaza-6,9-methanonaphtho[1,8-ab]heptalene-2-yl)-6-methyl-5-(trifluoromethyl)pyridin-2-amine], the IC50 was 0.48 nM on KRAS G12D and 23.3 nM on KRAS WT (read-out: KRas HTRF IC50).
With `Cc1nc(N)cc(-c2nc3c4c(nc(OC[C@@H]5CC[C@H]6COCCN65)nc4c2F)N2C[C@H]4CC[C@H](N4)[C@H]2[C@H](C(F)(F)F)O3)c1C(F)(F)F` [Compound 253, 4-((5R,5aS,6S,9R)-1-Fluoro-12-(((6S,8aS)-hexahydro-1H-pyrrolo[2,1-c][1,4]oxazin-6-yl)methoxy)-5-(trifluoromethyl)-5a,6,7,8,9,10-hexahydro-5H-4-oxa-3,10a,11,13,14-pentaaza-6,9-methanonaphtho[1,8-ab]heptalene-2-yl)-6-methyl-5-(trifluoromethyl)pyridin-2-amine], the IC50 was 1.03 nM on KRAS G12D and 37.1 nM at KRAS WT (read-out: KRas HTRF IC50).
Consider `Cc1c(F)c(N)cc(-c2nc3c4c(nc(OC[C@@]56CCCN5C[C@H](F)C6)nc4c2F)N2C[C@H]4CC[C@H](N4)[C@@H]2[C@@H](C(F)(F)F)O3)c1C(F)(F)F` [Compound 248, 2-Fluoro-5-((5S,5aR,6S,9R)-1-fluoro-12-(((2R,7aS)-2-fluorotetrahydro-1H-pyrrolizin-7a(5H)-yl)methoxy)-5-(trifluoromethyl)-5a,6,7,8,9,10-hexahydro-5H-4-oxa-3,10a,11,13,14-pentaaza-6,9-methanonaphtho[1,8-ab]heptalene-2-yl)-3-methyl-4-(trifluoromethyl)aniline], for which the values for the IC50 at KRAS G12D and at KRAS WT (read-out: KRas HTRF IC50) were 1.1 nM and 0.522 nM, respectively.
Turning to `C#Cc1cccc2cc(O)cc(-c3nc4c5c(nc(OC[C@@]67CCN6CC(F)(F)C7)nc5c3F)N3C[C@H]5CC[C@H](N5)[C@H]3[C@H](C)O4)c12` (single isomer, unassigned) [Compound 20], the IC50 on KRAS G12D was found to be 0.12 nM; on KRAS WT (setting [1]) it was 6.55 nM.
In the case of `Cc1c(F)c(N)c(F)c(-c2nc3c4c(nc(OC[C@@]56CCCN5C[C@H](F)C6)nc4c2F)N2C[C@H]4CC[C@H](N4)[C@H]2[C@H](C)O3)c1Cl` [Compound 195, 4-Chloro-2,6-difluoro-3-((5S,5aS,6S,9R)-1-fluoro-12-(((2R,7aS)-2-fluorotetrahydro-1H-pyrrolizin-7a(5H)-yl)methoxy)-5-methyl-5a,6,7,8,9,10-hexahydro-5H-4-oxa-3,10a,11,13,14-pentaaza-6,9-methanonaphtho[1,8-ab]heptalen-2-yl)-5-methylaniline], the figures for the IC50 on KRAS G12D and on KRAS WT (read-out: KRas HTRF IC50) were 0.44 nM and 108 nM, respectively.
For `Cc1c(F)c(N)cc(-c2nc3c4c(nc(OC[C@@]56CCCN5C[C@H](F)C6)nc4c2F)N2C[C@H]4CC[C@H](N4)[C@H]2[C@H](C(F)(F)F)O3)c1CC(F)F` [Compound 250, 4-(2,2-Difluoroethyl)-2-fluoro-5-((5R,5aS,6S,9R)-1-fluoro-12-(((2R,7aS)-2-fluorotetrahydro-1H-pyrrolizin-7a(5H)-yl)methoxy)-5-(trifluoromethyl)-5a,6,7,8,9,10-hexahydro-5H-4-oxa-3,10a,11,13,14-pentaaza-6,9-methanonaphtho[1,8-ab]heptalene-2-yl)-3-methylaniline] the same measures were 0.39 nM and 13.6 nM.
Consider `C[C@@H]1Oc2nc(-c3c(F)ccc4cc[nH]c(=O)c34)c(F)c3nc(OC[C@@]45CCCN4C[C@H](F)C5)nc(c23)N2C[C@H]3CC[C@H](N3)[C@@H]12` [Compound 196, 7-Fluoro-8-((5S,5aS,6S,9R)-1-fluoro-12-(((2R,7aS)-2-fluorotetrahydro-1H-pyrrolizin-7a(5H)-yl)methoxy)-5-methyl-5a,6,7,8,9,10-hexahydro-5H-4-oxa-3,10a,11,13,14-pentaaza-6,9-methanonaphtho[1,8-ab]heptalen-2-yl)isoquinolin-1(2H)-one], for which the IC50 was 248 nM on KRAS G12D and 20100 nM on KRAS WT (read-out: KRas HTRF IC50).
